14 compounds from US8399462B2, “JNK modulators” (Roche Palo Alto LLC, priority 2006, dated 2013) can be followed below.

One data set has as its target Human JNK1α1 (Homo sapiens, UniProt P45983). Briefly: JNK assay in vitro (phosphorylation of GST-ATF2 with [γ-33P]ATP), JNK1. It is filed as biochemical. The protocol:
(§1) JNK activity was measured by phosphorylation of GST-ATF2 (19-96) with [γ-^33P] ATP. […] Human JNK2α2 assay contains 1 nM enzyme, 1 μM ATF2, 8 μM ATP with 1 μCi [γ-^33P] ATP. Human JNK1α1 assay contains 2 nM enzyme, 1 μM ATF2, 6 μM ATP with 1 μCi [γ-^33P] ATP. Human JNK3 (Upstate Biotech #14-501M) assay contains 2 nM enzyme, 1 μM ATF2, 4 μM ATP with 1 μCi [γ-33P] ATP. The enzyme assay was carried out in the presence or absence of several compound concentrations. JNK and compound were pre-incubated for 10 min., followed by initiation of the enzymatic reaction by adding ATP and the substrate. The reaction mixture was incubated at 30° C. for 30 min. At the end of incubation, the reaction was terminated by transferring 25 μl of the reaction mixture to 150 μl of 10% glutathione Sepharose® slurry (Amersham # 27-4574-01) containing 135 mM EDTA. The reaction product was captured on the affinity resin, and washed on a filtration plate (Millipore, MABVNOB50) with phosphate buffered saline for six times to remove free radionucleotide. The incorporation of ^33P into ATF2 was quantified on a microplate scintillation counter (Packard Topcount). Compound inhibition potency on JNK was measured by IC50 value generated from ten concentration inhibition curves fitted into the 3-parameter model: % inhibition=Maximum/(I+(IC50/[Inhibitor])^slope). Data were analyzed on Microsoft Excel for parameter estimation.

For another data set, the target named is Human JNK2α2 (Homo sapiens, UniProt P45984). Briefly: JNK assay in vitro (phosphorylation of GST-ATF2 with [γ-33P]ATP), JNK2. In kind it is biochemical. As to the method: as §1
Another data set has as its system c-jun. Briefly: c-jun of Table 2 (method not described). In kind it is cell-based.
Data set [1] has as its system TNFα-induced IL-6 production. Briefly: Rat in vivo TNFα-induced IL-6 production assay. Particulars: 1.5 h, oral gavage, 30 min before TNF-α i.p., blood 90 min after challenge. As to the method:
Female Wistar-Han rats procured from Charles River Laboratories were allowed to acclimate for one week prior to use and achieve an approximate body weight of 95-130 g. Rats were administered test compound via oral gavage 30 min prior to an intraperitoneal challenge of 0.5 μg recombinant rat TNF-α (Biosource). Blood was collected via cardiocentesis 90 min after TNF-α challenge. Plasma was prepared using lithium heparin separation tubes (BD microtainer) and frozen at −80° C. until analyzed. IL-6 levels were determined using a rat specific IL-6 ELISA kit (Biosource).

The test system of data set [2] is inflammatory cell infiltration into BAL. Briefly: Ovalbumin-sensitized asthma model (inflammatory cell infiltration into BAL). In kind it is in vivo, rat. Particulars: 30 mg/kg.
The test system is the same in data set [3]. Described as above. It is filed as in vivo, rat. The protocol:
(A) Male Brown-Norway rats are sensitized i.p. with 100 μg of OA (ovalbumin) in 0.2 ml alum once every week for three weeks (day 0, 7, and 14). The week following the last sensitization, the rats are ready for testing. One to 2 days prior to challenge, animals are weighed. On day 21, the rats are dosed q.d. with either vehicle or compound formulation subcutaneously 30 minutes before OA aerosol challenge (1% OA for 45 minutes) and terminated 4 or 24 hours after challenge. At time of sacrifice, rats are anesthetized (urethane, approx. 2 g/kg, i.p.). Plasma is collected from rats for PK at termination. Blood is drawn from the abdominal aorta at termination. A tracheal cannula is inserted and the lungs are lavaged with 3×3 ml PBS. The BAL fluid is analyzed for total leukocyte number and differential leukocyte counts. Total leukocyte number in an aliquot of the cells (20-100 μl) is determined using a Coulter Counter. For differential leukocyte counts, 50-200 μl of the sample is centrifuged in a Cytospin and the slide stained with Diff-Quik. The proportions of monocytes, eosinophils, neutrophils and lymphocytes are counted under light microscopy using standard morphological criteria and expressed as a percentage. The remaining BAL fluid is centrifuged (1500 rpm, 10 min) and the supernatant is stored at −80° C. Lungs are also harvested for protein and/or RNA analyses.

Where two headings read alike, the source gives them in different places.

Human JNK2α2, sequence (P45984 whole entry): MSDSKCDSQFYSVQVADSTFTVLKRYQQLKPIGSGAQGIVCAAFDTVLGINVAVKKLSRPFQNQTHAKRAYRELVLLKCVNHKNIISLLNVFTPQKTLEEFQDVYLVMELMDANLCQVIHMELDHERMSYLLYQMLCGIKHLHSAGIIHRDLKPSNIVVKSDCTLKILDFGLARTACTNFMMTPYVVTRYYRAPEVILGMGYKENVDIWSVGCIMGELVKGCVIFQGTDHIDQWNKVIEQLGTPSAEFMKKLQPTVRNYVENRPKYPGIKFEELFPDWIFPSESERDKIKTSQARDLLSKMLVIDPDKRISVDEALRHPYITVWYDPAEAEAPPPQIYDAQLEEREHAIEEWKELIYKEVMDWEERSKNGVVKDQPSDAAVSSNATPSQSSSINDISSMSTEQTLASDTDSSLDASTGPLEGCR
Human JNK1α1, sequence (P45983 1-384 isoform P45983-2): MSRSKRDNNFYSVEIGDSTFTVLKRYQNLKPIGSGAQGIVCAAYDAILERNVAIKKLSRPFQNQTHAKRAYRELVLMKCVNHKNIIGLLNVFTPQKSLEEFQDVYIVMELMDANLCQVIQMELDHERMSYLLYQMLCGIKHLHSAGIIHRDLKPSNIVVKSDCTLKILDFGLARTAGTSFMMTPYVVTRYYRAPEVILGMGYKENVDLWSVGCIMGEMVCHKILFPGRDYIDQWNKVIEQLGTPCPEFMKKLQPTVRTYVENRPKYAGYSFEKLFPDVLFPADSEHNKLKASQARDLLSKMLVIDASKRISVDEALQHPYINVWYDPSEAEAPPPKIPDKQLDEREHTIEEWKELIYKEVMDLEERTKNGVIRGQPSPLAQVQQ

Consider `CCC(CO)NC(=O)[C@H]1CC[C@H](Nc2nccc(-n3ncc4ccccc43)n2)CC1` (stereo partly shown) [Compound 15], for which the figures for the IC50 on Human JNK1α1, on Human JNK2α2 and in the data set with c-jun were 67.8 nM, 458 nM and 1290 nM, respectively.
Consider `O=C(NCC(O)CO)[C@H]1CC[C@H](Nc2nccc(-n3ncc4ccccc43)n2)CC1` (stereo partly shown) [Compound 16], for which, in data set [1], the inhibition in vivo at 30 mg/kg is 47.4%. Besides, the IC50 stood at 70.8 nM at Human JNK1α1, 592 nM against Human JNK2α2 and 4130 nM with c-jun.
In the case of `CC(C)(O)c1cccc2c1ccn2-c1ccnc(N[C@H]2CC[C@H](O)CC2)n1` [Compound 18, 4-[4-(4-(2-hydroxyprop-2-yl)-indol-1-yl)-pyrimidin-2-ylamino]-cyclohexanol], the values for the IC50 against Human JNK1α1, against Human JNK2α2 and in the data set with c-jun were 73.5 nM, 337 nM and 1950 nM, respectively.
Compound `O=C(NC(CO)CO)[C@H]1CC[C@H](Nc2nccc(-n3ncc4ccccc43)n2)CC1` [Compound 26, 4-(4-indazol-1-yl-pyrimidin-2-ylamino)-cyclohexane carboxylic acid 1,3-dihydroxyprop-2-ylamide] registered an inhibition in vivo at 30 mg/kg in data set [1] of 59.6%. For the same compound, the IC50 on Human JNK1α1 was 85 nM; on Human JNK2α2, 695 nM; in the data set with c-jun, 1890 nM.
For the compound `COc1cccc2c1cnn2-c1ccnc(N[C@H]2CC[C@H](O)CC2)n1` [Compound 86, 4-[4-(4-methoxyindazol-1-yl)-pyrimidin-2-yl-amino]-cyclohexanol], the IC50 against Human JNK1α1 (Km concentrations of ATP and substrate, 6 μM ATP, 1 μM ATF2) was 22.8 nM; against Human JNK2α2 (Km concentrations of ATP and substrate, 8 μM ATP, 1 μM ATF2) it was 178 nM.
Consider `N#CCOc1cccc2c1cnn2-c1ccnc(N[C@H]2CC[C@H](O)CC2)n1` [Compound 87, (1-[2-(4-hydroxycyclo-hexylamino)-pyrimidin-4-yl]-1H-indazol-4-yl-oxy)acetonitrile], for which 10 mg/kg produced 64% inhibition in vivo in data set [1]. Besides, the IC50 on Human JNK1α1 worked out at 29.7 nM; on Human JNK2α2 it was 191 nM; in the data set with c-jun, 1710 nM.
`CC(C)C(=O)Nc1cccc2c1ccn2-c1ccnc(N[C@H]2CC[C@H](O)CC2)n1` [Compound 88, N-(1-[2-(4-hydroxy-cyclohexylamino)-pyrimidin-4-yl]-1H-indol-4-yl)-isobutyr-amide] displayed a melting point of 211.8 to 212.6 °C. The same compound gave an IC50 against Human JNK1α1 of 70.9 nM. The same compound registered an IC50 at Human JNK2α2 of 480 nM.
For the compound `CC(C)(O)[C@H]1CC[C@H](Nc2nccc(-n3ncc4c(OCCCS(C)(=O)=O)cccc43)n2)CC1` [Compound 157, 2-(4-{4-[4-(3-methane-sulfonyl-propoxy)-indazol-1-yl]-pyrimidin-2-ylamino}-cyclohexyl)-propan-2-ol], 10 mg/kg produced 52.5% inhibition in vivo in data set [1]. Also, in data set [2], the Eosinophils % inhibition is recorded as 22.6%, the “Eosinophils count in BAL” value is 0.24 ± 0.05 × 10^5 per mL, the Neutrophils % inhibition was 70.6% and the “Neutrophils count in BAL” value is 0.47 ± 0.12 × 10^5 per mL. Also, the “Total cells count in BAL” value in data set [2] is on record as 2.46 ± 0.18 × 10^5 per mL. Further, in data set [3] (10 mg/kg), the Eosinophils % inhibition is 6.5%, the “Eosinophils count in BAL” value was 0.29 ± 0.09 × 10^5 per mL, the Neutrophils % inhibition stood at 41.3% and the “Neutrophils count in BAL” value is listed as 0.94 ± 0.10 × 10^5 per mL. Besides, in data set [3] (10 mg/kg), the “Total cells % inhibition” value is given as 3.3% and the “Total cells count in BAL” value is reported as 2.67 ± 0.13 × 10^5 per mL. Further, in data set [3] (30 mg/kg), the “Total cells % inhibition” value worked out at 10.9%.
Consider `CS(=O)(=O)CCCOc1cccc2c1cnn2-c1ccnc(N[C@H]2CC[C@H](NC(=O)CN3CCOCC3)CC2)n1` [Compound 159, N-(4-{4-[4-(3-methane-sulfonyl-propoxy)-indazol-1-yl]-pyrimidin-2-ylamino}-cyclohexyl)-2-morpholin-4-yl-acetamide], for which the melting point fell in the range of 219.2 to 221.1 °C. For the same compound, the inhibition in vivo at 10 mg/kg in data set [1] is 57.6%.
In data set [1], `CC(C)(O)[C@H]1CC[C@H](Nc2nccc(-n3ccc4c(OCCCS(C)(=O)=O)cccc43)n2)CC1` [Compound 166, 2-(4-{4-[4-(3-methanesulfonyl-propoxy)-indol-1-yl]-pyrimidin-2-ylamino}-cyclohexyl)-propan-2-ol] had an inhibition in vivo at 10 mg/kg of 48.5% and an inhibition in vivo at 20 mg/kg of 75.2%.
In turn, `CS(=O)(=O)CCCOc1cccc2c1ccn2-c1ccnc(N[C@H]2CC[C@H](C(=O)N3CC[C@H](O)C3)CC2)n1` [Compound 224, (3-hydroxy-pyrrolidin-1-yl)-(4-{4-[4-(3-methane-sulfonyl-propoxy)-indol-1-yl]-pyrimidin-2-ylamino}-cyclohexyl)-methanone] showed an inhibition in vivo at 20 mg/kg in data set [1] of 68.6%.
As to `CS(=O)(=O)CCCOc1cccc2c1ccn2-c1ccnc(N[C@H]2CC[C@H](C(=O)N3CC[C@@H](O)C3)CC2)n1` [Compound 225, (3-hydroxy-pyrrolidin-1-yl)-(4-{4-[4-(3-methane-sulfonyl-propoxy)-indol-1-yl]-pyrimidin-2-ylamino}-cyclohexyl)-methanone], the inhibition in vivo at 20 mg/kg in data set [1] was determined as 50.9%.
The compound `CS(=O)(=O)CCCOc1cccc2c1ccn2-c1ccnc(N[C@H]2CC[C@H](C(=O)N3CCC(N)CC3)CC2)n1.Cl` [Compound 233, (4-amino-piperidin-1-yl)-(4-{4-[4-(3-methane-sulfonyl-propoxy)-indol-1-yl]-pyrimidin-2-ylamino}-cyclohexyl)-methanone] came in with a melting point of 247 to 248 °C. The same compound showed an inhibition in vivo at 20 mg/kg in data set [1] of 57.8%.
As to `C[C@@H]1C[C@H]2[C@@H]3CCC4=CC(=O)C=C[C@]4(C)[C@@]3(F)[C@@H](O)C[C@]2(C)[C@@]1(O)C(=O)CO` [Dexamethasone, dexamethasone, reference compound], in data set [3] (10 mg/kg), the Eosinophils % inhibition is reported as 41.9%, the “Eosinophils count in BAL” value is 0.18 ± 0.11 × 10^5 per mL, the Neutrophils % inhibition came to 97.5% and the “Neutrophils count in BAL” value is 0.04 ± 0.01 × 10^5 per mL. The “Total cells % inhibition” value in data set [3] (10 mg/kg) was found to be 23.2%.

For orientation: IC50 means the midpoint of a concentration-inhibition curve. As a reminder, the inhibition in vivo is how much of the control response was suppressed. A lower inhibition in vivo goes with a weak effect. One may read the melting point as the temperature, or range, at which the solid turns liquid.
